From patent US9023853B2, “Janus kinase 2 (JAK2) inhibitor for the treatment of lupus” (Cephalon, Inc., priority 2010, dated 2015)

Assays:
[1] = tested on: NZM mice; test: Splenomegaly (EOS spleen mass) in NZM mice; type: in vivo, mouse
Procedure: Age mated, female, NZM or NZW/LacJ, mice were matured for the study of lupus nephritis for a total of 7 months or 210 days at which time urine was collected for proteinuria detection. Mice with 0.5-1.0 mg/ml of urine protein as determined by an optical density-based total protein precipitation assay and cross-checked for 30-300 mg/dl of protein as determined by a stick assay were considered proteinuria positive and selected for study entry. Groups were normalized to contain a Gaussian distribution of proteinuria positive animals (i.e., ⅓ low proteinuria, ⅓ medium, ⅓ high) then randomized between groups before ear marking and taking baseline measures including urine and serum collections. A total of five mice from the total population were randomly selected for baseline kidney histology evaluation. Treatments and tests for each group are as described in FIG. 12. Briefly, with a minimum of 10 mice per group, COMPOUND A was administered at 100 mg/kg or 55 mg/kg, both twice a day and orally. […] Vehicle included 3% DMSO, 10% Solutol and 87% PBS. […] End-stage lupus nephritis was evaluated by histopathology and scored by a board certified pathologist for the assessment of total renal damage in diseased animals using the scoring method described by Smith et al (Smith, Dong et al. 2007). […] Day-98 or “end of treatment/study” represents 310 days of age for the NZM animals.

[2] = tested on: pSTAT3; test: Pharmacodynamic renal pSTAT3 (JAK2 inhibition marker) in MRL/lpr mice; type: in vivo, mouse; settings: four hours after final dosing at EOS
Text: (§1) MRL/lpr mice were first randomized, initial bleeds collected, and body weights recorded for baseline measurements (FIG. 1). All mice were individually ear tagged and were monitored throughout the entire experiment (e.g., “Group#-Cage letter-Mouse#”, so “3B5”=Group 3 (G3), cage B, mouse#5). Mice were age-matched and treatment started at 6-8 weeks of age. Cheek bleeds and urine collection continued weekly throughout the experiment. Mice were individually tracked for several parameters including cytokine and ANA levels, proteinuria, body mass, lymphomegaly, general health, and mortality. All parameters were evaluated bi-monthly except mortality which was monitored daily. All groups consisted of a minimum of at least 10-12 mice per group. Ex vivo experiments included flow cytometry analyses for plasma cells, serum complement C3 and ANA levels; urine protein and leukocytes, serum cytokine profiling, renal histo pathology, and determination of compound levels (pharmacokinetics (PK)) in the spleen, kidney and plasma. Mice were tracked on an individual basis. For all data, mice were grouped into populations and data graphed as mean±SEM. Bi-monthly observations and data collected were recorded for each group, except mortality which was performed daily. End-stage readouts were analyzed as described in the MATERIALS AND METHODS section (above) and in FIG. 1. […]

[3] = mouse, in vivo
Text: as §1

[4] = tested on: CD38; test: CD38 expression by flow cytometry in NZM mice; type: in vivo, mouse
Procedure: Antibodies used for flow cytometry consisted of anti-mouse CD138-APC (eBioscience, San Diego, Calif.), anti-mouse CD19-FITC (eBioscience, San Diego, Calif.), anti-mouse CD38-PE (eBioscience, San Diego, Calif.) and anti-mouse CD45R/B220-Cyc (eBioscience, San Diego, Calif.), Rat IgG1-APC isotype control (eBioscience, San Diego, Calif.), Rat IgG2a-PE isotype control (eBioscience, San Diego, Calif.). All samples were analyzed using an Accuri C6 Flow Cytometer. Complete media was used for all experiments involving the ex vivo culture of splenocytes for all Elispot experiments. […]
Age mated, female, NZM or NZW/LacJ, mice were matured for the study of lupus nephritis for a total of 7 months or 210 days at which time urine was collected for proteinuria detection. Mice with 0.5-1.0 mg/ml of urine protein as determined by an optical density-based total protein precipitation assay and cross-checked for 30-300 mg/dl of protein as determined by a stick assay were considered proteinuria positive and selected for study entry. […] End-stage lupus nephritis was evaluated by histopathology and scored by a board certified pathologist for the assessment of total renal damage in diseased animals using the scoring method described by Smith et al (Smith, Dong et al. 2007). […]

CN1CCN(c2cccc(Nc3nc4c(-c5ccc(S(C)(=O)=O)cc5)cccn4n3)c2)CC1 [COMPOUND A, [8-(4-methanesulfonyl-phenyl)-[1,2,4]triazolo[1,5-a]pyridin-2-yl]-[3-(4-methyl-piperazin-1-yl)-phenyl]-amine]
total EOS spleen mass decrease compared to vehicle ([1]; 55 mg/kg): 71.8%
total EOS spleen mass decrease compared to vehicle ([1]; 100 mg/kg): 73.5%
renal pSTAT3 ([2]; 55 mg/kg): Significant reductions
renal pSTAT3 ([2]; 100 mg/kg): Significant reductions
overt toxicity [3]: overt toxicity was not observed
decrease in expression of CD38 ([4]; COMPOUND A 55 mg/kg): 66.6%
decrease in expression of CD38 ([4]; COMPOUND A 100 mg/kg): 74.2%
